Measurements as given in ChEMBL document CHEMBL5303304, “EUbOPEN Chemogenomics Library - IncuCyte” (2023).

Legend:
Format in all cases: toxicity, cell-based
Fibroblast = assay: Incucyte cell viability with human fibroblast; settings: 10 µM, compound concentration 10 uM
U2OS = assay: Incucyte cell viability with U2OS; settings: human, 10 µM, compound concentration 10 uM
HEK-293T = assay: Incucyte cell viability with HEK293T; settings: human, 10 µM, compound concentration 10 uM
Further: unitless GR value; below 1 slowed growth and below 0 cell loss.

Row | SMILES | Growth Rate (Fibroblast; 0 h, replicate number 2) | Growth Rate (U2OS; 6 h, replicate number 1) | Growth Rate (U2OS; 12 h, replicate number 1) | Growth Rate (U2OS; 12 h, replicate number 2) | Growth Rate (U2OS; 18 h, replicate number 1) | Growth Rate (U2OS; 24 h, replicate number 2) | Growth Rate (HEK-293T; 6 h, replicate number 1) | Growth Rate (HEK-293T; 6 h, replicate number 2) | Growth Rate (HEK-293T; 12 h, replicate number 1) | Growth Rate (HEK-293T; 12 h, replicate number 2) | Growth Rate (HEK-293T; 18 h, replicate number 1) | Growth Rate (HEK-293T; 18 h, replicate number 2) | Growth Rate (HEK-293T; 24 h, replicate number 2) | Growth Rate (Fibroblast; 6 h, replicate number 2) | Growth Rate (Fibroblast; 12 h, replicate number 1) | Growth Rate (Fibroblast; 12 h, replicate number 2) | Growth Rate (Fibroblast; 18 h, replicate number 2) | Growth Rate (Fibroblast; 24 h, replicate number 2) | Growth Rate (U2OS; 24 h, replicate number 1) | Growth Rate (HEK-293T; 24 h, replicate number 1) | further results
1 | COc1cc2ncnc(Nc3cccc(O)c3)c2cc1OC | 0.07 | 0.98 | 0.83 | 0.75 | 0.88 | 0.84 | 0.14 | 0.13 | 0.56 | 0.71 | 0.96 | 0.75 | 0.77 | – | – | – | – | – | – | – | Growth Rate (Fibroblast; 0 h, replicate number 1): -1; Growth Rate (U2OS; 0 h, replicate number 1): -0.82; Growth Rate (U2OS; 6 h, replicate number 2): 0.55; Growth Rate (U2OS; 18 h, replicate number 2): 0.69
2 | Nc1ncnc2c1c(COc1cccc(Cl)c1)nn2C1CCOCC1 | -0.61 | 0.51 | 0.63 | – | 0.81 | – | 0.75 | 0.59 | – | 0.61 | 0.83 | 0.5 | 0.37 | 0.47 | 0.9 | 0.6 | 0.74 | 0.92 | 0.83 | 0.79 | Growth Rate (Fibroblast; 6 h, replicate number 1): 0.82
3 | CNc1nc(Nc2ccc(C(=O)N3CCOCC3)cc2OC)ncc1Cl | – | -0.99 | – | – | – | – | 0.75 | 0.81 | – | – | 0.99 | 0.96 | 0.96 | 0.67 | – | 0.72 | 0.63 | 0.99 | – | 0.92 | Growth Rate (Fibroblast; 0 h, replicate number 1): -0.99
4 | COC[C@@H](C)N[C@H]1CC[C@H](Nc2cc(-c3cccc(NCC4(C#N)CCOCC4)n3)c(Cl)cn2)CC1 | -1 | 0.79 | 0.88 | 0.62 | 0.59 | 0.68 | -0.07 | – | 0.2 | 0.18 | 0.22 | 0.24 | 0.35 | -0.13 | -0.08 | -0.06 | -0.22 | -0.12 | 0.79 | 0.27 | Growth Rate (Fibroblast; 6 h, replicate number 1): 0.06; Growth Rate (Fibroblast; 18 h, replicate number 1): -0.12; Growth Rate (Fibroblast; 24 h, replicate number 1): -0.09; Growth Rate (U2OS; 0 h, replicate number 2): 0.56; Growth Rate (U2OS; 6 h, replicate number 2): 0.56; Growth Rate (U2OS; 18 h, replicate number 2): 0.71
5 | C=CC(=O)Nc1cccc(C(=O)Nc2ccc(Nc3cc(-c4c(-c5ccc(F)cc5)nc(SC)n4C)ccn3)cc2)c1 | 0.71 | – | – | – | – | 0.97 | 0.54 | 0.39 | 0.55 | 0.34 | 0.47 | 0.46 | – | – | – | – | – | – | – | 0.57 | Growth Rate (Fibroblast; 0 h, replicate number 1): -0.95
6 | NC(=O)c1ccc(-c2nc(-c3ccc4c(c3)OCCO4)c(-c3ccccn3)[nH]2)cc1 | -0.85 | 0.21 | 0.58 | 0.94 | 0.55 | 0.75 | 0.37 | 0.65 | 0.76 | 0.81 | 0.8 | 0.74 | 0.86 | 0.41 | 0.77 | 0.45 | 0.63 | 0.74 | 0.5 | 0.79 | Growth Rate (Fibroblast; 0 h, replicate number 1): -1; Growth Rate (U2OS; 18 h, replicate number 2): 0.86
7 | C=CC(=O)Nc1cc(-c2nn(C3CCC(N4CCN(C(C)=O)CC4)CC3)c3ncnc(N)c23)ccc1Oc1ccccc1 (stereo unspecified) | – | -0.85 | -0.62 | -0.57 | -0.59 | -0.41 | -0.71 | -0.92 | -0.48 | -0.56 | -0.4 | -0.22 | 0.09 | -0.24 | -0.15 | 0.07 | 0.33 | 0.67 | -0.59 | -0.31 | Growth Rate (Fibroblast; 6 h, replicate number 1): -0.52; Growth Rate (Fibroblast; 18 h, replicate number 1): 0.03; Growth Rate (Fibroblast; 24 h, replicate number 1): 0.21; Growth Rate (U2OS; 0 h, replicate number 2): -0.83; Growth Rate (U2OS; 6 h, replicate number 2): -0.6; Growth Rate (U2OS; 18 h, replicate number 2): -0.48
8 | CC[C@H](CO)Nc1nc(Nc2cccc(-c3ccccn3)c2)c2ncn(C(C)C)c2n1.Cl.O | – | – | 0.96 | – | 0.92 | – | -0.37 | -0.77 | -0.07 | -0.31 | 0.07 | -0.09 | 0 | 0.21 | 0.05 | 0.28 | 0.45 | 0.49 | 0.76 | 0.16 | Growth Rate (Fibroblast; 0 h, replicate number 1): -0.64; Growth Rate (Fibroblast; 6 h, replicate number 1): 0.1; Growth Rate (Fibroblast; 18 h, replicate number 1): 0.33; Growth Rate (Fibroblast; 24 h, replicate number 1): 0.45; Growth Rate (U2OS; 0 h, replicate number 1): -0.98
9 | Fc1ccc(-c2nc(-c3ccc4ccccc4c3F)[nH]c2-c2ccncc2)cc1 | – | – | – | – | – | 0.94 | 0.81 | 0.42 | 0.77 | 0.57 | 0.7 | 0.41 | 0.47 | -0.01 | 0.47 | 0.65 | 0.8 | – | – | 0.67 | Growth Rate (Fibroblast; 6 h, replicate number 1): 0.58; Growth Rate (Fibroblast; 18 h, replicate number 1): 0.61; Growth Rate (Fibroblast; 24 h, replicate number 1): 0.76; Growth Rate (U2OS; 0 h, replicate number 1): -1
10 | Cc1ccc2c(N)c(C(=O)NC3CCc4cc(N5CC6CCC(C5)N6)ccc4C3)sc2n1.O=CO (stereo unspecified) | – | – | 0.47 | 0.12 | 0.35 | 0.08 | -0.55 | -0.64 | -0.47 | -0.55 | -0.39 | -0.46 | -0.37 | -0.1 | 0.09 | -0.17 | -0.26 | -0.21 | 0.24 | -0.32 | Growth Rate (Fibroblast; 6 h, replicate number 1): 0.09; Growth Rate (Fibroblast; 18 h, replicate number 1): 0.05; Growth Rate (Fibroblast; 24 h, replicate number 1): 0.01; Growth Rate (U2OS; 0 h, replicate number 2): 0.59; Growth Rate (U2OS; 6 h, replicate number 2): 0.37; Growth Rate (U2OS; 18 h, replicate number 2): 0.15
11 | CCN1CCN(Cc2ccc(C(=O)Nc3ccc(C)c(Oc4ccc5c(c4)CC(=O)N5)c3)cc2C(F)(F)F)CC1.Cl.Cl | 0.42 | – | 0.23 | -0.14 | 0.37 | -0.01 | -0.56 | -0.1 | -0.3 | 0.11 | -0.23 | 0.15 | 0.14 | 0.36 | -0.1 | -0.08 | -0.3 | -0.31 | 0.51 | -0.13 | Growth Rate (Fibroblast; 6 h, replicate number 1): 0.34; Growth Rate (Fibroblast; 18 h, replicate number 1): -0.33; Growth Rate (Fibroblast; 24 h, replicate number 1): -0.38; Growth Rate (U2OS; 0 h, replicate number 2): -0.46; Growth Rate (U2OS; 6 h, replicate number 2): -0.37; Growth Rate (U2OS; 18 h, replicate number 2): -0.02
12 | O=C(Nc1ccc(Cl)c(-c2ccccn2)c1)c1cccc(COc2ccc(Br)cc2CNCCO)c1.O=CO | 0.59 | 0.38 | 0.61 | 0.6 | 0.3 | 0.33 | -0.57 | -0.56 | -0.44 | -0.32 | -0.3 | -0.2 | -0.07 | 0.09 | 0.51 | -0.14 | -0.28 | -0.36 | 0.53 | -0.2 | Growth Rate (Fibroblast; 0 h, replicate number 1): -0.98; Growth Rate (Fibroblast; 18 h, replicate number 1): 0.29; Growth Rate (Fibroblast; 24 h, replicate number 1): 0.25; Growth Rate (U2OS; 6 h, replicate number 2): 0.78; Growth Rate (U2OS; 18 h, replicate number 2): 0.36
